The IC50 is the concentration that gives 50% inhibition.

The target of experiment [1] is human TASK-1 (Homo sapiens, UniProt O14649). Nature of the experiment: Inhibition of recombinant TASK-1 in stably transfected CHO cells, KCl-induced depolarization, voltage-sensitive dye (B-2). It is filed as cell-based. Set-up: expressed in transfected cells; host or cells: stably transfected CHO cells. The note with it: depolarization induced by 40 mM potassium chloride, some mean values from multiple determinations. The gist of the method: (§1)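 Stably transfected CHO cells loaded with a voltage-sensitive membrane potential dye. Depolarization was induced with 40 mM KCl, and compound inhibition of it was read by fluorescence. IC50 is the concentration blocking half of the KCl-induced depolarization; some values are means of multiple independent determinations.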

The target of experiment [2] is human TASK-3 (Homo sapiens, UniProt Q9NPC2). The experiment can be described thus: Inhibition of recombinant TASK-3 in stably transfected CHO cells, KCl-induced depolarization, voltage-sensitive dye (B-2). The class given is cell-based. Set-up: expressed in transfected cells; host or cells: stably transfected CHO cells. The note with it: depolarization induced by 40 mM potassium chloride, some mean values from multiple determinations. The procedure, abridged: as §1
Chain of human TASK-3 (Q9NPC2 whole entry): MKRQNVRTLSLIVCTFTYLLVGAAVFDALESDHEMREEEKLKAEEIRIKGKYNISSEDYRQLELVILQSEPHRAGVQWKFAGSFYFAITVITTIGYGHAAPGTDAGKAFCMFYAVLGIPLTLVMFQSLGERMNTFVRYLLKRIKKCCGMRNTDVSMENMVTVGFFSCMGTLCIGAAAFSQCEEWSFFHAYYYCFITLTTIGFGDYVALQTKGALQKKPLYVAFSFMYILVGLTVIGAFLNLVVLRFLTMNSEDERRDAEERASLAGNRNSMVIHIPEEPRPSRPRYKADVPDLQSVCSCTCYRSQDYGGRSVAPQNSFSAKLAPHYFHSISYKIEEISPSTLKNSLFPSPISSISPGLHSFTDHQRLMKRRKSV

Chain of human TASK-1 (O14649 whole entry): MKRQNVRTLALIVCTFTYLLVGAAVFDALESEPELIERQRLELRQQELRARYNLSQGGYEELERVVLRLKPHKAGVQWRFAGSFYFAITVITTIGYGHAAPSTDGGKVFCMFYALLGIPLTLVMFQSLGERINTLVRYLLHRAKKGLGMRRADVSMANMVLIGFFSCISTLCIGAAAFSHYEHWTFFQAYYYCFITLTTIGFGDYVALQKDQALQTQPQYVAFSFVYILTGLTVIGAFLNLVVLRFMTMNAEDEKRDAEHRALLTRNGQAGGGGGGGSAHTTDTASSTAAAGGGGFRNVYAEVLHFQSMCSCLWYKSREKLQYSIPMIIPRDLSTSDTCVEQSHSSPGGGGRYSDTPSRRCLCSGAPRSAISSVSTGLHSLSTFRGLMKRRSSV

On to `CC(C)NC(=O)N1C2CCC1CN(Cc1c(-c3ccc(Cl)cc3)nc3ccccn13)C2` [Example 154, 3-{[2-(4-Chlorophenyl)imidazo[1,2-a]pyridin-3-yl]methyl}-N-isopropyl-3,8-diazabicyclo[3.2.1]octane-8-carboxamide], for which the IC50 in experiment [1] was 130 nM; in experiment [2], 29 nM.
The like results for `O=C(Nc1ccccc1F)N1C2CCC1CN(Cc1c(-c3ccc(Cl)cc3)nc3ccccn13)C2` [Example 155, 3-{[2-(4-Chlorophenyl)imidazo[1,2-a]pyridin-3-yl]methyl}-N-(2-fluorophenyl)-3,8-diazabicyclo[3.2.1]octane-8-carboxamide] were, in that order, 610 nM and 210 nM.
In the same order, the values of `O=C(Nc1c(Cl)cccc1Cl)N1C2CCC1CN(Cc1c(-c3ccc(Cl)cc3)nc3ccccn13)C2` [Example 156, 3-{[2-(4-Chlorophenyl)imidazo[1,2-a]pyridin-3-yl]methyl}-N-(2,6-dichlorophenyl)-3,8-diazabicyclo[3.2.1]octane-8-carboxamide] are 1200 nM and 15 nM.
For the compound `Cc1cccc(C)c1NC(=O)N1C2CCC1CN(Cc1c(-c3ccc(Cl)cc3)nc3ccccn13)C2` [Example 157, 3-{[2-(4-Chlorophenyl)imidazo[1,2-a]pyridin-3-yl]methyl}-N-(2,6-dimethylphenyl)-3,8-diazabicyclo[3.2.1]octane-8-carboxamide], the IC50 in experiment [1] stood at 24 nM; in experiment [2] it was 7.4 nM.
For `CCCCCNC(=O)N1C2CCC1CN(Cc1c(-c3ccc(Cl)cc3)nc3ccccn13)C2` [Example 158, 3-{[2-(4-Chlorophenyl)imidazo[1,2-a]pyridin-3-yl]methyl}-N-pentyl-3,8-diazabicyclo[3.2.1]octane-8-carboxamide], the IC50 in experiment [1] is 760 nM; in experiment [2], 110 nM.
The like results for `Cc1ccccc1NC(=O)N1C2CCC1CN(Cc1c(-c3ccc(Cl)cc3)nc3ccccn13)C2` [Example 159, 3-{[2-(4-Chlorophenyl)imidazo[1,2-a]pyridin-3-yl]methyl}-N-(2-methylphenyl)-3,8-diazabicyclo[3.2.1]octane-8-carboxamide] were, in that order, 2900 nM and 220 nM.
The like results for `O=C(Nc1cc(C(F)(F)F)ccc1Cl)N1C2CCC1CN(Cc1c(-c3ccc(Cl)cc3)nc3ccccn13)C2` [Example 160, 3-{[2-(4-Chlorophenyl)imidazo[1,2-a]pyridin-3-yl]methyl}-N-[2-chloro-5-(trifluoromethyl)phenyl]-3,8-diazabicyclo[3.2.1]octane-8-carboxamide] were, in that order, 7600 nM and 1000 nM.
In the case of `O=C(Nc1ccc(Cl)cc1)N1C2CCC1CN(Cc1c(-c3ccc(Cl)cc3)nc3ccccn13)C2` [Example 161, N-(4-Chlorophenyl)-3-{[2-(4-chlorophenyl)imidazo[1,2-a]pyridin-3-yl]methyl}-3,8-diazabicyclo[3.2.1]octane-8-carboxamide], the IC50 in experiment [1] is 7700 nM; in experiment [2] it was 1000 nM.
The like results for `CCc1cccc(C)c1NC(=O)N1C2CCC1CN(Cc1c(-c3ccc(Cl)cc3)nc3ccccn13)C2` [Example 162, 3-{[2-(4-Chlorophenyl)imidazo[1,2-a]pyridin-3-yl]methyl}-N-(2-ethyl-6-methylphenyl)-3,8-diazabicyclo[3.2.1]octane-8-carboxamide] were, in that order, 53 nM and 13 nM.
In the case of `Cc1ccc(C)c(NC(=O)N2C3CCC2CN(Cc2c(-c4ccc(Cl)cc4)nc4ccccn24)C3)c1` [Example 163, 3-{[2-(4-Chlorophenyl)imidazo[1,2-a]pyridin-3-yl]methyl}-N-(2,5-dimethylphenyl)-3,8-diazabicyclo[3.2.1]octane-8-carboxamide], the IC50 in experiment [1] came out at 1400 nM; in experiment [2], 160 nM.
As to `O=C(NC1CCCCC1)N1C2CCC1CN(Cc1c(-c3ccc(Cl)cc3)nc3ccccn13)C2` [Example 164, 3-{[2-(4-Chlorophenyl)imidazo[1,2-a]pyridin-3-yl]methyl}-N-cyclohexyl-3,8-diazabicyclo[3.2.1]octane-8-carboxamide], the results for the IC50 in experiment [1] and in experiment [2] were 3100 nM and 1000 nM, respectively.

Source of the values: patent publication US20210024545A1, “SUBSTITUTED DIAZAHETERO-BICYCLIC COMPOUNDS AND THEIR USE” (Bayer Aktiengesellschaft, priority 2016, published 2021).
